Experimental data as given in US20110306775A1, “SYNTHESIS AND BIOLOGICAL EVALUATION OF 2',5'-DIMETHOXYCHALCONE DERIVATIVES AS MICROTUBULE-TARGETED ANTICANCER AGENTS” (KAOHSIUNG MEDICAL UNIVERSITY, priority 2010, published 2011).

Key:
PC3 cells [1] = experiment: Cell cycle analysis (propidium iodide, flow cytometer), PC3 cells; assay type: cell-based, human; conditions: FIG. 3
Experimental: (§1) DNA content was determined following propidium iodide (PI) staining of cells. Briefly, 6×10^5 cells were plated and treated with 20 μM cisplatin and various concentrations of compounds 11 and 15 for 24 hours, respectively. These cells were harvested by trypsinization, washed with 1×PBS, and fixed in ice-cold MeOH at −20° C. After overnight incubation, the cells were washed with PBS and incubated with 50 μg/mL propidium iodide and 50 μg/mL RNase A in PBS at room temperature for 30 minutes. The fractions of cells in each phase of cell cycle were analyzed using flow cytometer.

PC3 cells [2] = experiment: MTT cytotoxicity assay, PC3 cells; assay type: cell-based, human; conditions: for IC50: mean ± SD, n = 3-5
Source text: (§2) The cell lines of the present invention were an human urothelial carcinoma cell line (NTUB1), a human prostate cancer cell line (PC3), a human lung adenocarcinoma epithelial cell line (A549) and a SV-40 immortalized human uroepithelial cell line (SV-HUC1). However, the cell lines applied in the present invention includes but not limit in NTUB1, PC3, A549 and SV-HUC1 cells. Other cell lines having the same characteristics or not exactly the same characteristics are able to be used in the present invention. NTUB1, PC3 and A549 cells were maintained in RPMI 1640 and SV-HUC1 cells were maintained in F12 medium supplemented with 10% fetal bovine serum (FBS), 100 unit/mL penicillin-G, 100 μg/mL streptomycin and 2 mM glutamine. The cells were cultured at 37° C. in a humidified atmosphere containing 5% carbon dioxide.
(§3) The cytotoxic effect of compounds 1 to 18 of the present invention and cisplatin (positive control) on the cell lines was evaluated using 3-[4,5-dimethylthiazol-2-yl]-2,5-diphenyltetrazolium bromide (MTT) assay. Briefly, the cells were plated at a density of 1800 cells/well in 96-well plates and incubated in the presence of graded concentrations of compounds 1 to 18 and cisplatin at 37° C. for 72 hours. At the end of the culture period, 50 μL of MTT ([…] in PBS) was added to each well and allowed to react for 3 hours. Following centrifugation of plates at 1000 g for 10 minutes, media were removed and 150 μL dimethyl sulfoxide (DMSO) were added to each well. The proportions of surviving cells were determined by absorbance spectrometry at 540 nm. The cell viability was expressed as a percentage to the viable cells of control culture condition. The IC50 value of each group were calculated by the median-effect analysis and presented as mean±standard deviation (SD).

NTUB1 cells [3] = experiment: Cell cycle analysis (propidium iodide, flow cytometer), NTUB1 cells; assay type: cell-based, human; conditions: 24 hours, FIG. 2
Experimental: as §1

NTUB1 cells [4] = experiment: MTT cytotoxicity assay, NTUB1 cells; assay type: cell-based, human; conditions: for IC50: mean ± SD, n = 3-5
Source text: as §2, §3

| Compound | IC50 (PC3 cells [2]; 72 hours) [µM] | IC50 (NTUB1 cells [4]; 72 hours) [µM] | melting point [°C] | IC50 (PC3 cells [2]; Homo sapiens, PC-3, 72 hours) [µM] | IC50 (NTUB1 cells [4]; Homo sapiens, NTUB1, 72 hours) [µM] | also measured |
| --- | --- | --- | --- | --- | --- | --- |
| 4-(2-methylethyl)carbamoyl-2′,5′-dimethoxychalcone [Compound 11] | 1.58 ± 0.08 | 1.97 ± 0.39 | – | – | – | apoptotic cells death (PC3 cells [1]; PC3, 0.3 μM): increase of the apoptotic cells death; apoptotic cells (PC3 cells [1]; PC3, 1 μM): increase of apoptotic cells; cytotoxicity against PC3 cells (in words) (PC3 cells [2]): significantly enhanced the cytotoxicity; apoptotic cell death (NTUB1 cells [3]; NTUB1, 1 μM): increase in apoptotic cell death; cell cycle phase arrest (NTUB1 cells [3]; NTUB1, 1 μM, vs control): induced G1 phase arrest; cytotoxicity against NTUB1 cells (in words) (NTUB1 cells [4]): significantly enhanced the cytotoxicity |
| CCOC(=O)c1ccc(/C=C/C(=O)c2cc(OC)ccc2OC)cc1 (hydrate or solvate) [Compound 3, 4-ethoxycarbonyl-2′,5′-dimethoxychalcone] | – | – | 118 to 119 | – | – | – |
| N.N.[Cl][Pt][Cl] [Cisplatin, cisplatin, reference compound] | 4.56 ± 0.76 | 3.27 ± 0.1 | – | – | – | apoptotic cell death (PC3 cells [1]; PC3, 20 μM, 24 hours): increase of apoptotic cell death; cell cycle distribution (PC3 cells [1]; PC3, 20 μM, 24 hours): accumulation of cells in S phase; cell cycle distribution (NTUB1 cells [3]; NTUB1, 20 μM): accumulation of cells in G1 and S phases; sub-G1 population (NTUB1 cells [3]; NTUB1, 20 μM): increase of the population of sub-G1 phase |
| COc1ccc(OC)c(C(=O)/C=C/c2ccc(C(=O)O)cc2)c1 [Compound 1, 4-carboxyl-2′,5′-dimethoxychalcone] | – | – | 214 to 215 | 7.24 ± 0.58 | 5.7 ± 0.68 | cytotoxicity against NTUB1 cells (in words) (NTUB1 cells [4]): significantly cytotoxic activities |
| COC(=O)c1ccc(/C=C/C(=O)c2cc(OC)ccc2OC)cc1 [Compound 2, 4-methoxycarbonyl-2′,5′-dimethoxychalcone] | – | – | 118 to 119 | 4.85 ± 0.11 | 3.51 ± 0.45 | – |
| CCOC(=O)c1ccc(/C=C/C(=O)c2cc(OC)ccc2OC)cc1 [Compound 3, 4-ethoxycarbonyl-2′,5′-dimethoxychalcone] | – | – | – | 5.7 ± 0.43 | 4.49 ± 0.98 | – |
| CCCOC(=O)c1ccc(C=CC(=O)c2cc(OC)ccc2OC)cc1 [Compound 4, propoxycarbonyl-2′,5′-dimethoxychalcone] | 26.9 | 6.01 ± 0.3 | – | – | – | – |
| COc1ccc(OC)c(C(=O)/C=C/c2ccc(C(=O)OC(C)C)cc2)c1 [Compound 5, 4-isopropoxycarbonyl-2′,5′-dimethoxychalcone] | – | – | – | 6.74 ± 1.34 | 4.42 ± 0.5 | – |
| COc1ccc(OC)c(C(=O)/C=C/c2ccc(C(=O)OCc3ccccc3)cc2)c1 [Compound 6, 4-benzyloxycarbonyl-2′,5′-dimethoxychalcone] | – | – | – | 17.9 ± 0.5 | 13.3 ± 2.86 | – |
| COc1ccc(OC)c(C(=O)/C=C/c2ccc(C(=O)OCC=C(C)C)cc2)c1 [Compound 7, 4-(3-methyl-but-2-enyloxycarbonyl)-2′,5′-dimethoxychalcone] | – | – | – | > 50 | 13.4 ± 0.78 | – |
